Measurements taken from US20230106174A1, “RAS INHIBITORS” (Revolution Medicines, Inc., priority 2021, published 2023).

Tests used:
K-Ras G13C = K-Ras G13C (Homo sapiens, UniProt P01116+P62937, G13C); test: Raf-Ras (FRET or MOA) binding assay: disruption of BRAF RBD interaction with K-Ras G13C in presence of Cyclophilin A; assay type: biochemical; details: read-out: IC50 in the Raf-Ras (FRET or MOA) binding assay re: K-Ras G13C
Description: As used herein, the term “linker” refers to a divalent organic moiety connecting a first moiety (e.g., a macrocyclic moiety) to a second moiety (e.g., a cross-linking group). […] Compound is present in plate wells as a 10-point 3-fold dilution series starting at a final concentration of 30 μM. After incubation at 25° C. for 3 hours, a mixture of Anti-His Eu-W1024 and anti-GST allophycocyanin is then added to assay sample wells at final concentrations of 10 nM and 50 nM, respectively, and the reaction incubated for an additional 1.5 hours. TR-FRET signal is read on a microplate reader (Ex 320 nm, Em 665/615 nm). Compounds that facilitate disruption of a Ras:RAF complex are identified as those eliciting a decrease in the TR-FRET ratio relative to DMSO control wells.
Disruption of B-Raf Ras-Binding Domain (BRAF RBD) Interaction with K-Ras by Compounds of the Invention (Also Called a FRET Assay or an MOA Assay)
Note—The following protocol describes a procedure for monitoring disruption of K-Ras G12C (GMP-PNP) binding to BRAF^RBD by a compound of the invention. This protocol may also be executed substituting other Ras proteins or nucleotides.
The purpose of this biochemical assay was to measure the ability of test compounds to facilitate ternary complex formation between a nucleotide-loaded K-Ras isoform and Cyclophilin A; the resulting ternary complex disrupts binding to a BRAF^RBD Construct, inhibiting K-Ras signaling through a RAF effector. Data was reported as IC50 values.
In assay buffer containing 25 mM HEPES pH 7.3, 0.002% Tween20, 0.1% BSA, 100 mM NaCl and 5 mM MgCl2, tagless Cyclophilin A, His6-K-Ras-GMPPNP, and GST-BRAF^RBD were combined in a 384-well assay plate at final concentrations of 25 μM, 12.5 nM and 50 nM, respectively. Compound was present in plate wells as a 10-point 3-fold dilution series starting at a final concentration of 30 μM. […] TR-FRET signal was read on a microplate reader (Ex 320 nm, Em 665/615 nm). […]

K-Ras G12C = molecular target: T1, K-Ras G12C (Homo sapiens, UniProt P01116+P62937, G12C); test: pERK potency assay in NCI-H358 cells (AlphaLISA SureFire or In-Cell Western); assay type: cell-based; details: 4 hours incubation
T1 construct: endogenous in cells; host or cells: NCI-H358
Description: The purpose of this assay was to measure the ability of test compounds to inhibit K-Ras in cells. […] This procedure measures a decrease in cellular pERK in response to test compounds. The procedure described below in NCI-H358 cells is applicable to K-Ras G12C. […]
NCI-H358 cells were grown and maintained using media and procedures recommended by the ATCC. On the day prior to compound addition, cells were plated in 384-well cell culture plates (40 μl/well) and grown overnight in a 37° C., 5% CO2 incubator. Test compounds were prepared in 10, 3-fold dilutions in DMSO, with a high concentration of 10 mM. On the day of assay, 40 nL of test compound was added to each well of cell culture plate using an Echo550 liquid handler (LabCyte®). Concentrations of test compound were tested in duplicate. After compound addition, cells were incubated 4 hours at 37° C., 5% CO2. Following incubation, culture medium was removed and cells were washed once with phosphate buffered saline.
In some experiments, cellular pERK level was determined using the AlphaLISA SureFire Ultra p-ERK1/2 Assay Kit (PerkinElmer). Cells were lysed in 25 μL lysis buffer, with shaking at 600 RPM at room temperature. Lysate (10 μL) was transferred to a 384-well Opti-plate (PerkinElmer) and 5 μL acceptor mix was added. After a 2-hour incubation in the dark, 5 μL donor mix was added, the plate was sealed, and incubated 2 hours at room temperature. Signal was read on an Envision plate reader (PerkinElmer) using standard AlphaLISA settings. Analysis of raw data was carried out in Excel (Microsoft) and Prism (GraphPad). Signal was plotted vs. the decadal logarithm of compound concentration, and IC50 was determined by fitting a 4-parameter sigmoidal concentration response model.
In other experiments, cellular pERK was determined by In-Cell Western. Following compound treatment, cells were washed twice with 200 μL tris buffered saline (TBS) and fixed for 15 minutes with 150 μL 4% paraformaldehyde in TBS. Fixed cells were washed 4 times for 5 minutes with TBS containing 0.1% Triton X-100 (TBST) and then blocked with 100 μL Odyssey blocking buffer (LI-COR) for 60 minutes at room temperature. […] Cells were washed 4 times for 5 minutes with TBST. Secondary antibody (IR-800CW rabbit, LI-COR, diluted 1:800) and DNA stain DRAQ5 (LI-COR, diluted 1:2000) were added and incubated 1-2 hours at room temperature. Cells were washed 4 times for 5 minutes with TBST. Plates were scanned on a Li—COR Odyssey CLx Imager. Analysis of raw data was carried out in Excel (Microsoft) and Prism (GraphPad). Signal was plotted vs. the decadal logarithm of compound concentration, and IC50 was determined by fitting a 4-parameter sigmoidal concentration response model.

NCI-H358 (K-Ras G12C) = test: CellTiter-Glo cell viability assay, 5-day treatment, NCI-H358; assay type: cell-based; details: Homo sapiens, NCI-H358, 120 h
Description: Determination of Cell Viability in RAS Mutant Cancer Cell Lines
Protocol: CellTiter-Glo® Cell Viability Assay
Note—The following protocol describes a procedure for monitoring cell viability of K-Ras mutant cancer cell lines in response to a compound of the invention. Other RAS isoforms may be employed, though the number of cells to be seeded will vary based on cell line used.
The purpose of this cellular assay was to determine the effects of test compounds on the proliferation of three human cancer cell lines (NCI-H358 (K-Ras G12C), AsPC-1 (K-Ras G12D), and Capan-1 (K-Ras G12V)) over a 5-day treatment period by quantifying the amount of ATP present at endpoint using the CellTiter-Glo® 2.0 Reagent (Promega).
Cells were seeded at 250 cells/well in 40 μL of growth medium in 384-well assay plates and incubated overnight in a humidified atmosphere of 5% CO2 at 37° C. On the day of the assay, 10 mM stock solutions of test compounds were first diluted into 3 mM solutions with 100% DMSO. Well-mixed compound solutions (15 μL) were transferred to the next wells containing 30 μL of 100% DMSO, and repeated until a 9-concentration 3-fold serial dilution was made (starting assay concentration of 10 μM). Test compounds (132.5 nL) were directly dispensed into the assay plates containing cells. The plates were shaken for 15 seconds at 300 rpm, centrifuged, and incubated in a humidified atmosphere of 5% CO2 at 37° C. for 5 days. On day 5, assay plates and their contents were equilibrated to room temperature for approximately 30 minutes. CellTiter-Glo® 2.0 Reagent (25 μL) was added, and plate contents were mixed for 2 minutes on an orbital shaker before incubation at room temperature for 10 minutes. Luminescence was measured using the PerkinElmer Enspire. Data were normalized by the following: (Sample signal/Avg. DMSO)*100. The data were fit using a four-parameter logistic fit.

[1] = ester bond; 18-membered ring; EDCI/HOBT/DIPEA; DCM; 6.8 mM
SW1573 = details: Canon et al., Nature 575:217-223 (2019); cited from earlier work

Chain of K-Ras G13C (P01116 1-188 isoform P01116-2 G13C): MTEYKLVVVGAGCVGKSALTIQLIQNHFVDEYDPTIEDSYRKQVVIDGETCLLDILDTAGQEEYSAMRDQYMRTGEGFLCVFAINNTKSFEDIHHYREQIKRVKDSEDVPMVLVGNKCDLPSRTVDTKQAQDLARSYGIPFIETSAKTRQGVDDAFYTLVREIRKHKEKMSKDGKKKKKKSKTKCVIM
Chain of K-Ras G13C (P62937 whole entry): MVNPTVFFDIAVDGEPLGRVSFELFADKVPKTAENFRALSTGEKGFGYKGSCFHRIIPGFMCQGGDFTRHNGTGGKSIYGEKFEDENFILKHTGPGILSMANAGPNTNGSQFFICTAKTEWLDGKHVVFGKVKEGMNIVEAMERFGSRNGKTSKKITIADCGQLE
T1 sequence (P01116 1-188 isoform P01116-2 G12C): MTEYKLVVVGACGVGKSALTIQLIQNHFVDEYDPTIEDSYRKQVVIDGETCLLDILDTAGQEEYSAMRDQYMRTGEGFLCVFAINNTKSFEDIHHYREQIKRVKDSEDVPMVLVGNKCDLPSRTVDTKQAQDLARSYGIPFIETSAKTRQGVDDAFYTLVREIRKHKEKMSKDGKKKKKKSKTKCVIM
T1 sequence (P62937 whole entry): as the sequence (P62937 whole entry) above

With `CCn1c(-c2cccnc2[C@H](C)OC)c2c3cc(ccc31)-c1cccc(c1)C[C@H](NC(=O)[C@@H](COC1CN(C(=O)C#CC(C)(C)N(C)C)C1)N(C)C)C(=O)N1CCC[C@H](N1)C(=O)OCC(C)(C)C2` (atropisomer, axis not shown) [Example A169] the IC50 (K-Ras G13C) was > 1500 nM.

For `C=CC(=O)N1CCN(CC)C2(CCN(C(=O)N(C)[C@H](C(=O)N[C@H]3C[C@H]4CN(CCO4)c4ccc5c(c4)c(c(-c4cccnc4[C@H](C)OC)n5CC)CC(C)(C)COC(=O)[C@@H]4CCCN(N4)C3=O)C(C)C)CC2)C1` (atropisomer, axis not shown) [Example A38], the IC50 (K-Ras G12C) was > 1000 nM and the IC50 (NCI-H358 (K-Ras G12C)) was > 1000 nM.

In the case of “tert-butyl ((6^3S,4S,Z)-1^1-ethyl-1^2-(2-((S)-1-methoxyethyl)pyridin-3-yl)-10,10-dimethyl-5,7-dioxo-6^1,6^2,6^3,6^4,6^5,6^6-hexahydro-1^1H-8-oxa-2(5,3)-oxadiazola-1(5,3)-indola-6(1,3)-pyridazinacycloundecaphane-4-yl)carbamate”, the ring closure, isolated yield [1] is reported as 18%.

For `CCn1c(-c2cccnc2[C@H](C)OC)c2c3cc(ccc31)N1CCS[C@@H](C[C@H](NC(=O)[C@@H](COC3CN(C(=O)C#CC(C)(C)N(C)C)C3)C(C)C)C(=O)N3CCC[C@H](N3)C(=O)OCC(C)(C)C2)C1` (atropisomer, axis not shown) [Example A175], the IC50 (K-Ras G13C) was > 1500 nM.

For `C=CC(=O)N1CCOC2(CCN(C(=O)N(C)[C@H](C(=O)N[C@H]3Cc4nccc(n4)-c4ccc5c(c4)c(c(-c4cccnc4[C@H](C)OC)n5CC)CC(C)(C)COC(=O)[C@@H]4CCCN(N4)C3=O)C(C)C)CC2)C1` (atropisomer, axis not shown) [Example A191], the IC50 (K-Ras G12C) was > 1000 nM and the IC50 (NCI-H358 (K-Ras G12C)) was > 1000 nM.

For `C=CC(=O)N1CCN(c2nc(=O)n(-c3c(C)ccnc3C(C)C)c3nc(-c4c(O)cccc4F)c(F)cc23)[C@@H](C)C1` [AMG510], the “sensitivity of cell line SW1573” value (SW1573) is given as “insensitive”.

For `CCn1c(-c2cccnc2[C@H](C)OC)c2c3cc(ccc31)N1CCS[C@@H](C[C@H](NC(=O)[C@@H](COC3CN(C(=O)C#CC(C)(C)N(C)C)C3)N(C)C)C(=O)N3CCC[C@H](N3)C(=O)OCC(C)(C)C2)C1` (atropisomer, axis not shown) [Example A171], the IC50 (K-Ras G13C) was > 1500 nM.
